Experimental data published in US12577226B2, “Compounds for treating Huntington's disease” (PTC THERAPEUTICS, INC., priority 2019, dated 2026).

What follows are compounds tested on Endogenous Huntingtin Protein (capture with MW1 (expanded polyglutamine) or MAB2166 antibody) (assay: Endogenous Huntingtin Protein Assay (ELISA-based Meso Scale Discovery electrochemiluminescence assay)). Details: MSD electrochemiluminescence platform.
Assay type: cell-based
Description: Compounds of Formula (I), Formula (II), or Formula (III) were tested using the Meso Scale Discovery (MSD) Assay provided in International Application No. PCT/US2016/066042, filed on Dec. 11, 2016 and claiming priority to U.S. Provisional Application U.S. 62/265,652 filed on Dec. 10, 2015, the entire contents of which are incorporated herein by reference.
The Endogenous Huntingtin Protein assay used in Example 1 was developed using the ELISA-based MSD electrochemiluminescence assay platform.
Meso Scale Discovery (MSD) 96-well or 384-well plates were coated overnight at 4° C. with MW1 (expanded polyglutamine) or MAB2166 monoclonal antibody (for capture) at a concentration of 1 μg/mL in PBS (30 μL per well). Plates were then washed three times with 300 μL wash buffer (0.05% Tween-20 in PBS) and blocked (100 μL blocking buffer; 5% BSA in PBS) for 4-5 hours at room temperature with rotational shaking and then washed three times with wash buffer.
Samples (25 μL) were transferred to the antibody-coated MSD plate and incubated overnight at 4° C. After removal of the lysates, the plate was washed three times with wash buffer, and 25 μL of #5656S (Cell signaling; rabbit monoclonal) secondary antibody (diluted to 0.25 μg/mL in 0.05% Tween-20 in blocking buffer) was added to each well and incubated with shaking for 1 Hour at room temperature. Following incubation with the secondary antibody, the wells were rinsed with wash buffer after which 25 μL of goat anti-rabbit SULFO TAG secondary detection antibody (required aspect of the MSD system) (diluted to 0.25 μg/mL in 0.05% Tween-20 in blocking buffer) was added to each well and incubated with shaking for 1 hour at room temperature. After rinsing three times with wash buffer, 150 μL of read buffer T with surfactant (MSD) were added to each empty well, and the plate was imaged on a SI 6000 imager (MSD) according to manufacturers' instructions provided for 96- or 384-well plates.

Row | Compound | IC50
1 | 5-(1H-pyrazol-4-yl)-2-{6-[(3R,5S)-3,4,5-trimethylpiperazin-1-yl]pyridazin-3-yl}pyridin-3-ol and 5-(1H-pyrazol-4-yl)-2-{6-[(3S,5R)-3,4,5-trimethylpiperazin-1-yl]pyridazin-3-yl}pyridin-3-ol [Compound 90] | 100 to 500 nM
2 | 6-[6-(6-{[(3R,4S)-3-fluoro-2,2,6,6-tetramethylpiperidin-4-yl]oxy}pyridazin-3-yl)-5-hydroxypyridin-3-yl]-2-methylimidazo[1,2-a]pyridine-8-carbonitrile and 6-[6-(6-{[(3S,4R)-3-fluoro-2,2,6,6-tetramethylpiperidin-4-yl]oxy}pyridazin-3-yl)-5-hydroxypyridin-3-yl]-2-methylimidazo[1,2-a]pyridine-8-carbonitrile [Compound 59] | ≤ 100 nM
3 | CC1(C)C[C@H](Oc2ccc(-c3ncc(-c4cn[nH]c4)cc3O)nn2)[C@H](F)C(C)(C)N1[O] [Compound 102, [(3R,4S)-3-fluoro-4-({6-[3-hydroxy-5-(1H-pyrazol-4-yl)pyridin-2-yl]pyridazin-3-yl}oxy)-2,2,6,6-tetramethylpiperidin-1-yl]oxidanyl] | 500 to 1000 nM
4 | [2H]C([2H])([2H])n1cc(-c2cnc(-c3ccc(OC4CC(C)(C)NC(C)(C)C4)nn3)c(O)c2)cn1 [Compound 3, 5-[1-(^2H3)methyl-1H-pyrazol-4-yl]-2-{6-[(2,2,6,6-tetramethylpiperidin-4-yl)oxy]pyridazin-3-yl}pyridin-3-ol] | ≤ 100 nM
5 | Cn1ccc(-c2cnc(-c3ccc(OC4CC(C)(C)NC(C)(C)C4)nn3)c(O)c2)n1 [Compound 4, 5-(1-methyl-1H-pyrazol-3-yl)-2-{6-[(2,2,6,6-tetramethylpiperidin-4-yl)oxy]pyridazin-3-yl}pyridin-3-ol] | ≤ 100 nM
6 | 2-(6-{[(3R,4S)-3-fluoro-2,2,6,6-tetramethylpiperidin-4-yl]oxy}pyridazin-3-yl)-5-(2-methylimidazo[1,2-b]pyridazin-6-yl)pyridin-3-ol and 2-(6-{[(3S,4R)-3-fluoro-2,2,6,6-tetramethylpiperidin-4-yl]oxy}pyridazin-3-yl)-5-(2-methylimidazo[1,2-b]pyridazin-6-yl)pyridin-3-ol [Compound 48] | ≤ 100 nM
7 | 2-(3-{[(3S,4S)-3-fluoro-2,2,6,6-tetramethylpiperidin-4-yl]amino}-1,2,4-triazin-6-yl)-5-(1H-pyrazol-4-yl)pyridin-3-ol and 2-(3-{[(3R,4R)-3-fluoro-2,2,6,6-tetramethylpiperidin-4-yl]amino}-1,2,4-triazin-6-yl)-5-(1H-pyrazol-4-yl)pyridin-3-ol [Compound 139] | ≤ 100 nM
8 | CC1(C)C[C@@H](Oc2ccc(-c3ncc(-c4nc5cnccn5n4)cc3O)nn2)[C@@H](F)C(C)(C)N1.CC1(C)C[C@H](Oc2ccc(-c3ncc(-c4nc5cnccn5n4)cc3O)nn2)[C@H](F)C(C)(C)N1 (mixture of isomers) [Compound 72, 2-(6-{[(3R,4S)-3-fluoro-2,2,6,6-tetramethylpiperidin-4-yl]oxy}pyridazin-3-yl)-5-([1,2,4]triazolo[1,5-a]pyrazin-2-yl)pyridin-3-ol and 2-(6-{[(3S,4R)-3-fluoro-2,2,6,6-tetramethylpiperidin-4-yl]oxy}pyridazin-3-yl)-5-([1,2,4]triazolo[1,5-a]pyrazin-2-yl)pyridin-3-ol] | 100 to 500 nM
9 | C[C@@H]1CN(c2ccc(-c3ncc(-c4cc(C#N)c5nn(C)cc5c4)cc3O)nn2)C[C@H](C)N1 [Compound 78, 5-(6-{6-[(3R,5S)-3,5-dimethylpiperazin-1-yl]pyridazin-3-yl}-5-hydroxypyridin-3-yl)-2-methyl-2H-indazole-7-carbonitrile and 5-(6-{6-[(3S,5R)-3,5-dimethylpiperazin-1-yl]pyridazin-3-yl}-5-hydroxypyridin-3-yl)-2-methyl-2H-indazole-7-carbonitrile] | ≤ 100 nM
10 | Cn1cc2cc(-c3cnc(-c4ccc(OC5CC(C)(C)NC(C)(C)C5)nn4)c(O)c3)cc(C#N)c2n1 [Compound 62, 5-[6-(6-{[2,2,6,6-tetramethylpiperidin-4-yl]oxy}pyridazin-3-yl)-5-hydroxypyridin-3-yl]-2-methyl-2H-indazole-7-carbonitrile] | ≤ 100 nM
11 | Cc1ccc(Nc2cnc(-c3ccc(N4C[C@@H](C)N[C@@H](C)C4)nn3)c(O)c2)cn1 [Compound 125, 2-{6-[(3R,5S)-3,5-dimethylpiperazin-1-yl]pyridazin-3-yl}-5-[(6-methylpyridin-3-yl)amino]pyridin-3-ol] | 100 to 500 nM
12 | C[C@@H]1CN(c2ccc(-c3ncc(-c4cn[nH]c4)cc3O)nn2)C[C@H](C)N1 [Compound 86, 2-{6-[(3R,5S)-3,5-dimethylpiperazin-1-yl]pyridazin-3-yl}-5-(1H-pyrazol-4-yl)pyridin-3-ol and 2-{6-[(3S,5R)-3,5-dimethylpiperazin-1-yl]pyridazin-3-yl}-5-(1H-pyrazol-4-yl)pyridin-3-ol] | 100 to 500 nM

Continued, values first:

Row | IC50 | Compound
13 | ≤ 100 nM | Cc1cn2cc(-c3cnc(-c4cnc(N5CCN(C)CC5)nn4)c(O)c3)cc(C)c2n1 [Compound 153, 5-(2,8-dimethylimidazo[1,2-a]pyridin-6-yl)-2-[3-(4-methylpiperazin-1-yl)-1,2,4-triazin-6-yl]pyridin-3-ol]
14 | ≤ 100 nM | COc1cc(-c2cnc(-c3ccc(N4CCNC(C)C4)nn3)c(O)c2)cc2cn(C)nc12 (stereo not drawn) [Compound 95, 5-(7-methoxy-2-methyl-2H-indazol-5-yl)-2-[6-(3-methylpiperazin-1-yl)pyridazin-3-yl]pyridin-3-ol]
15 | 100 to 500 nM | [2H]C([2H])([2H])n1cc(-c2cnc(-c3ccc(O[C@@H]4C[C@H](C)NC5(CC5)C4)nn3)c(O)c2)cn1 [Compound 83, 2-(6-{[(5S,7R)-5-methyl-4-azaspiro[2.5]octan-7-yl]oxy}pyridazin-3-yl)-5-[1-(^2H3)methyl-1H-pyrazol-4-yl]pyridin-3-ol]
16 | 100 to 500 nM | CC1(C)CN(c2ccc(-c3ncc(-c4cn[nH]c4)cc3O)nn2)CC(C)(C)N1 [Compound 88, 5-(1H-pyrazol-4-yl)-2-[6-(3,3,5,5-tetramethylpiperazin-1-yl)pyridazin-3-yl]pyridin-3-ol]
17 | ≤ 100 nM | Cn1cc2cc(-c3cnc(-c4ccc(N5CC6CC5CN6)nn4)c(O)c3)cc(F)c2n1 (stereo not drawn) [Compound 105, 2-[6-(2,5-diazabicyclo[2.2.1]heptan-2-yl)pyridazin-3-yl]-5-(7-fluoro-2-methyl-2H-indazol-5-yl)pyridin-3-ol]
18 | 500 to 1000 nM | [2H]C([2H])([2H])n1cc(-c2cnc(-c3ccc(O[C@H]4C[C@H](C)NC5(CC5)C4)nn3)c(O)c2)cn1 [Compound 84, 2-(6-{[(5S,7S)-5-methyl-4-azaspiro[2.5]octan-7-yl]oxy}pyridazin-3-yl)-5-[1-(^2H3)methyl-1H-pyrazol-4-yl]pyridin-3-ol]
19 | ≤ 100 nM | C[C@@H]1CN(c2ccc(-c3ncc(-c4cc(F)c5nn(C)cc5c4)cc3O)nn2)CCN1 [Compound 104, 5-(7-fluoro-2-methyl-2H-indazol-5-yl)-2-{6-[(3R)-3-methylpiperazin-1-yl]pyridazin-3-yl}pyridin-3-ol]
20 | ≤ 100 nM | 2-{6-[(3R,5R)-3,5-dimethylpiperazin-1-yl]pyridazin-3-yl}-5-(7-fluoro-2-methyl-2H-indazol-5-yl)pyridin-3-ol and 2-{6-[(3S,5R)-3,5-dimethylpiperazin-1-yl]pyridazin-3-yl}-5-(7-fluoro-2-methyl-2H-indazol-5-yl)pyridin-3-ol [Compound 106]
21 | 100 to 500 nM | C[C@@H]1CN(c2cnc(-c3ncc(-c4cc(F)c5nn(C)cc5c4)cc3O)nn2)C[C@H](C)N1 [Compound 164, 2-{6-[(3R,5S)-3,5-dimethylpiperazin-1-yl]-1,2,4-triazin-3-yl}-5-(7-fluoro-2-methyl-2H-indazol-5-yl)pyridin-3-ol and 2-{6-[(3S,5R)-3,5-dimethylpiperazin-1-yl]-1,2,4-triazin-3-yl}-5-(7-fluoro-2-methyl-2H-indazol-5-yl)pyridin-3-ol]
22 | 100 to 500 nM | COc1cc(-c2cnc(-c3ccc(N4C[C@@H](C)N[C@@H](C)C4)nn3)c(O)c2)ccn1 [Compound 96, 6-{6-[(3R,5S)-3,5-dimethylpiperazin-1-yl]pyridazin-3-yl}-2′-methoxy[3,4′-bipyridin]-5-ol and 6-{6-[(3S,5R)-3,5-dimethylpiperazin-1-yl]pyridazin-3-yl}-2′-methoxy[3,4′-bipyridin]-5-ol]
23 | ≤ 100 nM | Cn1cc2cc(-c3cnc(-c4ccc(OC5CC(C)(C)NC(C)(C)C5)nn4)c(O)c3)cc(F)c2n1 [Compound 52, 5-(7-fluoro-2-methyl-2H-indazol-5-yl)-2-{6-[(2,2,6,6-tetramethylpiperidin-4-yl)oxy]pyridazin-3-yl}pyridin-3-ol]
24 | ≤ 100 nM | CC(C)(C)NC1CCN(c2ncc(-c3ncc(-n4nccn4)cc3O)nn2)C1 (stereo not drawn) [Compound 138, 2-{3-[3-(tert-butylamino)pyrrolidin-1-yl]-1,2,4-triazin-6-yl}-5-(2H-1,2,3-triazol-2-yl)pyridin-3-ol]
